This assay deals with T1, human glucagon receptor (Homo sapiens, UniProt P47871).
T1 construct: expressed in transfected cells; host or cells: CHO-K1 cells, stably transfected
T1 sequence (P47871 26-477): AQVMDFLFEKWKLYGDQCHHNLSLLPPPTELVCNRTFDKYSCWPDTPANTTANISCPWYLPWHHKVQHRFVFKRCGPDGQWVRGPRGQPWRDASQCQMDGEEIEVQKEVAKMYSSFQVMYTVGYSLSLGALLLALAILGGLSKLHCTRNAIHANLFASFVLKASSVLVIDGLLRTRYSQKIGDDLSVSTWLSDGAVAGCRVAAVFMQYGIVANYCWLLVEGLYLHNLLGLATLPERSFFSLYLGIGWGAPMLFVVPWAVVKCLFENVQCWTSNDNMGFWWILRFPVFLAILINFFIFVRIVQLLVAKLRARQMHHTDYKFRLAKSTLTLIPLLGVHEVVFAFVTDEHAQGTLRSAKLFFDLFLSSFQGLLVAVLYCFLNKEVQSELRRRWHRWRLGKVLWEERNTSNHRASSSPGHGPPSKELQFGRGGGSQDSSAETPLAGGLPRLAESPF
Nature of the assay: Glucagon cAMP assay (Cisbio cAMP detection). It counts as cell-based. The protocol:
The Cisbio cAMP detection assay is used to determine the ability of punitive glucagon antagonist to block glucagon induced cAMP production. Potential glucagon antagonists are re-suspended and diluted in 100% DMSO. Prior to use in the Glucagon cAMP assay 100×DMSO compound stocks are diluted 20× with DMEM-F12 media (Invitrogen) containing either 0.1% or 4% BSA. 2 uls of 5× compound stocks are spotted into the appropriate wells of low binding white solid bottom 384 well plates (Corning). 2 uls of 5% DMSO or known glucagon antagonist are added to each plate to define the assay window. CHOK1 cells stably transfected with the human glucagon receptor are removed from culture flasks with cell dissociation buffer. Cell pellets are re-suspended, at a concentration of 8.3e^5 cells/ml in DMEM-F12 with or without 4% BSA and 200 uM IBMX. 6 uls of cell suspensions are added to the assay plates. Plates are incubated for 20 min at room temperature prior to the addition of a 100 pM challenge dose of glucagon. On a separate plate glucagon dose response curves are run to determine the EC50 of glucagon. After a 30 min room temperature incubation the reaction is terminated by the addition of lysis buffer containing the cAMP detection reagents. Plates are incubated for an additional 60 min at room temperature prior to being read on the Perkin Elmer fluorescent plate reader. Raw is converted to nM of cAMP produced based on a cAMP standard curve. Converted data is then analyzed using the Pfizer data analysis program. IC50 values are determined from the generated sigmoidal dose response curves. Kb values are the calculated using a modified Cheng-Prusoff equation.
As to `CC(C)CC(Nc1ccc(C(=O)NCCC(=O)O)cn1)c1ccc(-c2ccc(OC(F)(F)F)cc2)cc1` (racemic) [Example 1.58, (+/−)-3-(6-(3-methyl-1-(4′-(trifluoromethoxy)biphenyl-4-yl)butylamino)nicotinamido)propanoic acid], the Kb is 120 nM.

`CC(C)CC(Nc1ncc(C(=O)NCCC(=O)O)cn1)c1ccc(-c2ccc(C(F)(F)F)cc2)cc1` (single isomer, unassigned; isomer 2) [Example 1.6, 3-(2-(3-methyl-1-(4′-(trifluoromethyl)biphenyl-4-yl)butylamino)pyrimidine-5-carboxamido)propanoic acid, Isomer 2] displayed a Kb of 210 nM.

In the case of `CC(C)CC(Nc1ccc(C(=O)NCCS(=O)(=O)O)cn1)c1ccc(-c2ccc(C(F)(F)F)cc2)cc1` (racemic) [Example 1.22, (+/−)-2-(6-(3-methyl-1-(4′-(trifluoromethyl)biphenyl-4-yl)butylamino)nicotinamido) ethanesulfonic acid], the Kb came out at 6700 nM.

As for `CCc1ccc(-c2ccc(C(CC(C)C)Nc3ccc(C(=O)NCCC(=O)O)cn3)cc2)cc1` (racemic) [Example 1.54, (+/−)-3-(6-(1-(4′-ethylbiphenyl-4-yl)-3-methylbutylamino)nicotinamido)propanoic acid], the Kb stood at 230 nM.

On to `CC(C)CC(Nc1ccc(-c2ccc(C(F)(F)F)cc2)cc1)c1ccc(C(=O)NCCC(=O)O)cn1` (racemic) [Example 2.4, (+/−)-3-(6-(3-methyl-1-(4′-(trifluoromethyl)biphenyl-4-ylamino)butyl)nicotinamido)propanoic acid], for which the Kb was 300 nM.

For `CC(C)CC(Oc1ccc(C(=O)NCCC(=O)O)cn1)c1ccc(-c2ccc(C(F)(F)F)cc2)cc1` (racemic) [Example 3.2, (+/−)-3-(6-(3-methyl-1-(4′-(trifluoromethyl)biphenyl-4-yl)butoxy)nicotinamido)propanoic acid], the Kb was found to be 1900 nM.

The compound `CC(C)CC(Nc1ccc(C(=O)Nc2nn[nH]n2)cn1)c1ccc(-c2ccc(C(F)(F)F)cc2)cc1` (racemic) [Example 1.20] displayed a Kb of 1000 nM.

As for `CCCC(Nc1cnc(-c2ccc(C(F)(F)F)cc2)cn1)c1ccc(C(=O)NCCC(=O)O)cc1` (racemic) [Example 4.3, (±)-3-(4-(1-((5-(4-(trifluoromethyl)phenyl)pyrazin-2-yl)amino)butyl)benzamido)propanoic acid], the Kb amounted to 99 nM.

`CC(C)CC(Nc1cnc(-c2ccc(C(F)(F)F)cc2)nc1)c1ccc(C(=O)NCCC(=O)O)cc1` (centres unmarked) [Example 4.31, 3-(4-(3-methyl-1-(2-(4-(trifluoromethyl)phenyl)pyrimidin-5-ylamino)butyl)benzamido)propanoic acid] showed a Kb of 55 nM.

As for `CCOc1ccc(-c2ccc(C(CC(C)C)Nc3ccc(C(=O)NCCC(=O)O)cn3)cc2)cc1` (racemic) [Example 1.46, (+/−)-3-(6-(1-(4′-ethoxybiphenyl-4-yl)-3-methylbutylamino)nicotinamido)propanoic acid], the Kb is 92 nM.

`CC(C)CC(Nc1ccc(C(=O)NC[C@@H](O)C(=O)O)cn1)c1ccc(-c2ccc(C(F)(F)F)cc2)cc1` (mixture of isomers) [Example 1.24, (+/−)-(2R)-2-hydroxy-3-(6-(3-methyl-1-(4′-(trifluoromethyl)biphenyl-4-yl)butylamino)nicotinamido)propanoic acid]: the Kb turned out to be 1600 nM.

Compound `Cc1cc(NC(CC(C)C)c2ccc(C(=O)NCCC(=O)O)cn2)cnc1-c1ccc(Cl)cc1` (single isomer, unassigned; isomer 1) [Example 4.16, 3-(6-(1-(6-(4-chlorophenyl)-5-methylpyridin-3-ylamino)-3-methylbutyl)nicotinamido)propanoic acid, Isomer 1] gave a Kb of 180 nM.

Compound `CC(C)C[C@H](Nc1ccc(C(=O)NCCC(=O)O)cn1)c1ccc(-c2ccc(C(F)(F)F)cn2)cc1` [Example 4.1, (S)—N-({6-[(3-methyl-1-{4-[5-(trifluoromethyl)pyridin-2-yl]phenyl}butyl)amino]pyridin-3-yl}carbonyl)-beta-alanine] registered a Kb of 67 nM.

As for `CCCC(Nc1ccc(C(=O)NCCC(=O)O)cn1)c1ccc(-c2ccc(C(F)(F)F)cc2)cc1OC` (centres unmarked) [Example 4.24, 3-(6-(1-(3-methoxy-4′-(trifluoromethyl)biphenyl-4-yl)butylamino)nicotinamido)propanoic acid], the Kb worked out at 88 nM.

With `CC(C)CC(Nc1ccc(C(=O)NCCC(=O)O)cn1)c1ccc(-c2ccc(C(C)C)cc2)cc1` (racemic) [Example 1.57, (+/−)-3-(6-(1-(4′-isopropylbiphenyl-4-yl)-3-methylbutylamino)nicotinamido)propanoic acid], the Kb was found to be 120 nM.

As to `CCCC(Nc1ccc(C(=O)NCCC(=O)O)cn1)c1ccc(-c2ccc(C(F)(F)F)cc2)cc1` (racemic) [Example 1.7, (+/−)-3-(6-(1-(4′-(trifluoromethyl)biphenyl-4-yl)butylamino)nicotinamido)propanoic acid], the Kb came out at 170 nM.

Turning to `CC(C)CC(Nc1ccc(C(=O)NCCC(=O)O)cn1)c1ccc(-c2ccc(S(C)(=O)=O)cc2)cc1` (racemic) [Example 1.59, (+/−)-3-(6-(3-methyl-1-(4′-(methylsulfonyl)biphenyl-4-yl)butylamino)nicotinamido)propanoic acid], the Kb was determined as 1500 nM.

`Cc1cc(C(CC(C)C)Nc2ccc(C(=O)NCCC(=O)O)cn2)cnc1-c1ccc(C(F)(F)F)cc1` (centres unmarked) [Example 4.15, 3-(6-(3-methyl-1-(5-methyl-6-(4-(trifluoromethyl)phenyl)pyridin-3-yl)butylamino)nicotinamido)propanoic acid]: the Kb was 370 nM.

Compound `Cc1cc(C(CC(C)C)Nc2ncc(C(=O)NCCC(=O)O)cn2)cc(C)c1-c1ccc(C(F)(F)F)cc1` (racemic) [Example 1.27, (+/−)-3-(2-(1-(2,6-dimethyl-4′-(trifluoromethyl)biphenyl-4-yl)-3-methylbutylamino)pyrimidine-5-carboxamido)propanoic acid] had a Kb of 260 nM.

In turn, `Cc1ccc(-c2ccc(C(CC(C)C)Nc3ccc(C(=O)NCCC(=O)O)cn3)cc2)cn1` (racemic) [Example 1.36, (+/−)-3-(6-(3-methyl-1-(4-(6-methylpyridin-3-yl)phenyl)butylamino)nicotinamido)propanoic acid] showed a Kb of 870 nM.

As to `CC(C)C[C@@H](Nc1ccc(C(=O)NCCC(=O)O)cn1)c1ccc(-c2ccc(C(F)(F)F)cc2)cc1` [Example 1.1, (R)-3-(6-(3-methyl-1-(4′-(trifluoromethyl)biphenyl-4-yl)butylamino)nicotinamido)propanoic acid], the Kb is 1700 nM.

On to `CCC[C@H](Nc1cnc(-c2ccc(C(F)(F)F)cc2)cn1)c1ccc(C(=O)NCCC(=O)O)cc1` [Example 4.4, (S)-3-(4-(1-((5-(4-(trifluoromethyl)phenyl)pyrazin-2-yl)amino)butyl)benzamido)propanoic acid], for which the Kb amounted to 66 nM.

In turn, `O=C(O)CCNC(=O)c1ccc(NC(c2cnc(-c3ccc(C(F)(F)F)cc3)nc2)C2CCCCC2)nc1` (racemic) [Example 4.2, (+/−)-N-({6-[(cyclohexyl{2-[4-(trifluoromethyl)phenyl]pyrimidin-5-yl}methyl)amino]pyridin-3-yl}carbonyl)-beta-alanine] came in with a Kb of 31 nM.

Compound `COc1ccccc1-c1ccc(C(CC(C)C)Nc2ccc(C(=O)NCCC(=O)O)cn2)cc1` (racemic) [Example 1.43, (+/−)-3-(6-(1-(2′-methoxybiphenyl-4-yl)-3-methylbutylamino)nicotinamido)propanoic acid] gave a Kb of 190 nM.

In turn, `CCCC(Nc1ccc(C(=O)NCCC(=O)O)cn1)c1ccc(-c2ccc(C(F)(F)F)cc2)c(OC)c1` (centres unmarked) [Example 4.23, 3-(6-(1-(2-methoxy-4′-(trifluoromethyl)biphenyl-4-yl)butylamino)nicotinamido)propanoic acid] had a Kb of 75 nM.

Regarding `CCC(Nc1ccc(C(=O)NCCC(=O)O)cn1)c1ccc(-c2ccc(C(F)(F)F)cc2)cc1` (single isomer, unassigned; isomer 2) [Example 1.13, 3-(6-(1-(4′-(trifluoromethyl)biphenyl-4-yl)propylamino)nicotinamido) propanoic acid, Isomer 2], the Kb worked out at 150 nM.

`O=C(O)CCNC(=O)c1ccc(NC(CCC(F)(F)F)c2ccc(-c3ccc(C(F)(F)F)cc3)cc2)nc1` (racemic) [Example 4.13, (+/−)-3-(6-(4,4,4-trifluoro-1-(4′-(trifluoromethyl)biphenyl-4-yl)butylamino)nicotinamido)propanoic acid] displayed a Kb of 700 nM.

The compound `CC(C)CC(Nc1ccc(C(=O)NCCC(=O)O)cn1)c1ccc(-c2ccc(F)cc2)cc1` (racemic) [Example 1.51, (+/−)-3-(6-(1-(4′-fluorobiphenyl-4-yl)-3-methylbutylamino)nicotinamido)propanoic acid] yielded a Kb of 160 nM.

For the compound `CC(C)CC(Nc1ccc(C(=O)NCCC(=O)O)cn1)c1ccc(-c2ccc(C(F)(F)F)cn2)cc1` (racemic) [Example 4.22, (+/−)-3-(6-(3-methyl-1-(4-(5-(trifluoromethyl)pyridin-2-yl)phenyl)butylamino)nicotinamido)propanoic acid], the Kb came to 53 nM.
